The source of these data is BindingDB's records for doi:10.1016/j.bmcl.2007.02.049 (Gnf, 2007).

Structures are written as SMILES.

In this assay the target is Cathepsin S (Homo sapiens, UniProt P25774). Put plainly: Enzyme Inhibition Assay. The following applies: pH 5.5; 37 °C. As to the method:
The recombinant human cathepsin enzyme was preincubated with inhibitor for 20 minutes prior to addition of substrate. The substrate hydrolysis was monitored by the increase in fluorescence at an excitation wavelength of 380nm and an emission wavelength of 450 nm on a Gemini EM fluorometer. The reaction progress curve was fitted to the Morrison equation using PlateKi (BioKin) and the apparent inhibition constant was converted to the inhibition constant (Ki) for competitive inhibitors.

Sequence of Cathepsin S (P25774 whole entry): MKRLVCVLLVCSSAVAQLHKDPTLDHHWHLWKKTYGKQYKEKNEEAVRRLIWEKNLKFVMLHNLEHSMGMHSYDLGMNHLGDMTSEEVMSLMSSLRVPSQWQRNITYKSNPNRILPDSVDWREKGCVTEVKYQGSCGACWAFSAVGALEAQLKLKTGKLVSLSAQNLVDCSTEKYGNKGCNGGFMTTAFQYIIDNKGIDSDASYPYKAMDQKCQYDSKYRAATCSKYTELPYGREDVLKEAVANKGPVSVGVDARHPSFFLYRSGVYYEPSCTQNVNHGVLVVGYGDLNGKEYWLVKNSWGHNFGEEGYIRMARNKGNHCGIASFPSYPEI

What is called Ki is a measure of affinity in units of concentration, obtained from inhibition or displacement. A lower Ki goes with a stronger hold on the target. Compound `O=C(N[C@@H](CCc1ccccc1)CNc1ccc(OC(F)(F)F)cc1)[C@H](CCC1CCCC1)CC(=O)N1CCOCC1` [(2R)-2-(2-cyclopentylethyl)-4-(morpholin-4-yl)-4-oxo-N-[(2S)-4-phenyl-1-{[4-(trifluoromethoxy)phenyl]amino}butan-2-yl]butanamide] gave a Ki of 20 nM.
